In PubChem BioAssay AID2305 (GlaxoSmithKline (GSK), 2010) one finds IC50 data, which are given here for 88 compounds.

The assay relates to P. falciparum 3D7 growth, pLDH absorbance. Put plainly: P. falciparum 3D7 growth inhibition, dose response, strain 3D7 (AID 2305).

One may read the IC50 as the concentration that gives 50% inhibition.

Several values for one entry are separate records, joined by “and”; a condition that tells them apart may be missing. Equal values may be shown once.

Regarding `O=C(CCCC(=O)Nc1ccc(C2=NCCN2)cc1)Nc1ccc(C2=NCCN2)cc1`, the half-maximal inhibitory concentration (IC50) worked out at 0.11 µM.

Turning to `O=C(Nc1ccc(-c2nc3ccccc3[nH]2)cc1)c1cccc(S(=O)(=O)N2CCCC2)c1`, the IC50 came to 0.74 µM.

`CC(=O)c1sc(Cc2nc3ccccc3s2)nc1C` displayed an IC50 of 1.07 µM.

For `CCc1cc2c3c(N)nc(N)nc3ccc2n1CC`, the IC50 is 0.01 µM.

Regarding `OC(CNC12CC3CC(CC(C3)C1)C2)c1cccc(C(F)(F)F)c1` (stereo not drawn), the half-inhibitory concentration (IC50) was 0.3 µM.

For `COc1ccc2nccc([C@@H](O)CN3CCC(NC(=O)/C=C/c4cc(F)cc(Br)c4)CC3)c2c1`, the IC50 was 0.17 µM.

Compound `Cc1cc(=O)[nH]c(-n2nc(C)cc2NC(=O)C(c2ccccc2)c2ccccc2)n1` had an IC50 of 0.84 µM.

`COCCSc1nc2scc(C)c2c(=O)n1Cc1cccc(OC)c1` showed a concentration for half-maximal inhibition (IC50) of 0.91 µM.

Compound `CC(C)(C)NCCN(Cc1ccc(-c2ccc(C(F)(F)F)cc2)cc1)C(=O)Cn1c(SCc2ccc(F)cc2)nc(=O)c2c1CCC2` came in with an IC50 of 0.86 µM.

Take `O=C(Nc1ccncc1)c1cn(-c2ccccc2)nc1-c1cccs1`: the IC50 is 0.98 µM.

With `c1ccc(-c2cccnn2)cc1`, the IC50 is 0.91 µM.

With `O=c1cc(NCCCNCc2cn(S(=O)(=O)c3ccccc3)c3ccccc23)[nH]c2ccccc12`, the IC50 stood at 0.88 µM.

Compound `CCCCN(Cc1cnccc1-c1ccc(Br)cc1)c1ccc(C(O)(C(F)(F)F)C(F)(F)F)cc1` had an IC50 of 1.06 µM.

The compound `CCOC(=O)CCCc1cc(NC2CCN(C)CC2)nc(Nc2ccc(OC)cc2)n1` had an IC50 of 0.7 µM.

For the compound `c1ccc(CCNCc2ccc(-c3cccc(CNc4ccc5ncccc5c4)c3)cc2)cc1`, the IC50 came out at 0.93 µM.

In turn, `OCC1CCN(Cc2cccc(-c3ccc(-c4nc5ccc(C(F)(F)F)cc5[nH]4)s3)c2)CC1` yielded a half-inhibitory concentration (IC50) of 0.59 µM.

Turning to `COc1ccc(CN(C)CC(O)COc2ccc(NC(=O)c3cccc4c(=O)c5cccc(OC)c5[nH]c34)cc2)cc1OC` (stereo not drawn), the IC50 is 0.78 µM.

`COc1ccc(C(=O)N2CCC(C(=O)NC(C)c3ccc(-n4ccnc4)cc3)CC2)c2ccccc12` (stereo not drawn) yielded an IC50 of 1.13 µM.

`O=C(NCCc1cccc(Cl)c1Cl)c1ccc(N2CCN(c3ccncc3)CC2)nc1`: the IC50 is 1.06 µM.

Compound `COC(=O)/C=C/c1ccc(C[C@@H](C)NC[C@H](O)c2cccc(C(F)(F)F)c2)cc1` displayed an IC50 of 0.73 µM.

Consider `O=c1[nH]c2c(cc1CNC1CCCCC1)c(-c1ccc(F)cc1)nn2-c1ccccc1`, for which the concentration for half-maximal inhibition (IC50) worked out at 0.8 µM.

With `O=C(/C=C/c1cccc2ccccc12)NC1CCC(CN2CCC(c3c[nH]c4ccccc34)CC2)CC1` (stereo not drawn), the half-maximal inhibitory concentration (IC50) is 0.74 µM and 0.67 µM.

The compound `Fc1cccc(Cn2ncc3cc(Nc4ncnc5sc(C#Cc6ncc[nH]6)cc45)ccc32)c1` had a half-inhibitory concentration (IC50) of 1.8 µM.

In turn, `COCC(=O)Nc1nc2ccccc2[nH]1` yielded a 50% inhibitory concentration (IC50) of 0.3 µM.

`CCCc1ccc(S(=O)(=O)NC2CCN(c3ccnc(Nc4ccc(F)cc4)n3)C2)cc1` (stereo not drawn) yielded an IC50 of 1.01 µM.

In the case of `CCOC(=O)c1c(C)n(C2CCCCCC2)c2cc(Br)c(O)cc12`, the concentration for half-maximal inhibition (IC50) turned out to be 1.2 µM.

As for `COCCNCc1cccc(-c2ccccc2CN(C(=O)Nc2ccccc2)C2CCN(Cc3ccccc3)CC2)c1`, the IC50 came to 0.91 µM.

As for `COc1ccc(C2CC(=O)C3=C(C2)NC(C)=C(C(=O)OC(C)C)C3c2ccccc2F)cc1OC` (stereo not drawn), the 50% inhibitory concentration (IC50) worked out at 0.06 µM.

`CN1CCN(c2ccnc3ccc(NC(=O)N(C)c4ccc(Cl)c(Cl)c4)cc23)CC1` had an IC50 of 0.74 µM.

`Fc1cccc(COc2ccc(Nc3ncnc4ccc(-c5nnc(C(F)(F)F)o5)cc34)cc2Cl)c1` came in with an IC50 of 0.58 µM.

Compound `Cc1ccc(C)c(S(=O)(=O)Nc2ccc(Br)cc2C(=O)Nc2cccc(C(F)(F)F)c2)c1` had an IC50 of 1.21 µM.

In the case of `CCN(CC)Cc1cc(NC(=O)c2ccccc2O)ccc1Oc1ccc(Cl)cc1`, the 50% inhibitory concentration (IC50) stood at 0.83 µM.

`Cc1nnc2c(NC(=O)NC3CCCC3)cc3ccc(-c4cccc(CN(C)C)c4)cc3n12` had an IC50 of 1.16 µM.

`O=C1Nc2cccc3c2C1(CCCN1CCC(c2c[nH]c4cc(C(F)(F)F)ccc24)CC1)CCC3` (stereo not drawn): the IC50 was 0.96 µM.

In turn, `O=C(Nc1ccc(OCc2ccccc2)cc1)c1nc2ccccc2nc1Cl` displayed an IC50 of 0.25 µM.

As for `CCCn1c(Sc2ccc(C#N)c([N+](=O)[O-])c2)nnc1-c1ccc(OC)cc1`, the IC50 worked out at 0.86 µM.

Compound `Cc1nc2nc(N)nc(N)c2c(C)c1Cc1ccc(C(F)(F)F)cc1` showed a 50% inhibitory concentration (IC50) of 0.75 µM.

`CN(C)CCNc1nccc(N2CCc3ncnc(Nc4ccc(OCc5cccc(F)c5)c(Cl)c4)c3C2)n1` had a 50% inhibitory concentration (IC50) of 0.14 µM.

The compound `c1cc(CNCCN2CCNCC2)cc(-c2cccc(-c3nc4ccccc4[nH]3)c2)c1` returned an IC50 of 0.96 µM.

In the case of `O=C(NC1CCN(CC2(c3ccc(Cl)cc3)CCC2)CC1)c1ccn[nH]1`, the IC50 was 0.42 µM.

`O=C(Nc1ccc2oc(-c3ccc(Br)cc3)nc2c1)c1ccc([N+](=O)[O-])o1` displayed a half-inhibitory concentration (IC50) of 0.97 µM.

Compound `Cc1cc(I)ccc1Nc1nc2nonc2nc1Nc1ccc(I)cc1C` yielded an IC50 of 0.51 µM.

As to `COc1cccc(C2C(C(=O)Nc3ccccc3)=C(C)N=c3s/c(=C\c4ccc(O)cc4)c(=O)n32)c1` (stereo not drawn), the IC50 was found to be 0.58 µM.

`CCCCc1ccc(-c2ccc(-c3c(C)[nH]c(C)c(Br)c3=O)cn2)cc1` showed an IC50 of 0.06 µM.

`COc1ccc(-c2nc3nc4ccccc4cc3[nH]2)c(OCC(O)CNC(C)C)c1` (stereo not drawn) returned an IC50 of 0.69 µM.

`COc1ccccc1C1CCN(CCCCNC(=O)c2ccc(/C=C/c3cc(Cl)cc(Cl)c3)cc2)CC1` gave an IC50 of 0.72 µM.

In the case of `O=C(NCCCCN1CCN(c2cccc(Cl)c2Cl)CC1)c1ccc2c(c1)CCN(C1CCC1)CC2`, the half-maximal inhibitory concentration (IC50) was 0.75 µM.

On to `CC(=O)Nc1ccc([N+](=O)[O-])c2c(Br)cccc12`, for which the half-maximal inhibitory concentration (IC50) came to 0.64 µM.

Turning to `CN(CCCN(C)c1cc(NC(=O)c2ccc(F)cc2)ccn1)Cc1cccc(O)c1`, the 50% inhibitory concentration (IC50) amounted to 1.21 µM.

The compound `Cc1sc(N2CCCCC2)nc1C(=O)Nc1ccc(F)cc1C(F)(F)F` displayed an IC50 of 1.15 µM.

`c1ccc(CCNc2ncnc3c2[nH]c2ccccc23)cc1` showed a half-inhibitory concentration (IC50) of 0.6 µM.

In turn, `COc1ccc(Nc2nccc(-c3c(-c4cccc(NC(=O)c5c(F)cccc5F)c4)nn4ccccc34)n2)cc1Cl` returned a half-maximal inhibitory concentration (IC50) of 0.28 µM.

Consider `CO/C(=C\C=C\c1cc2cc(Cl)c(Cl)cc2[nH]1)C(=O)NCCCN1CCN(c2cccc(OCC(=O)Nc3ccccc3)c2)CC1`, for which the IC50 turned out to be 0.5 µM.

On to `Cc1nc2ccc(F)cc2n1C1CCN(C(=O)Cc2ccc(F)c(F)c2)CC1`, for which the IC50 is 1.41 µM.

`CN1CCN(c2ccnc3ccc(NC(=O)Nc4ccccc4Br)cc23)CC1` had a 50% inhibitory concentration (IC50) of 0.37 µM.

Consider `CCCC(=O)Nc1ccc(OCCCCN(CC(C)(C)C)c2ccc(C#N)c(C(F)(F)F)c2)cc1`, for which the IC50 came out at 1.35 µM.

For `C#CCCOc1ccc2ccccc2c1CNCCCCCCNCc1c(OCCC#C)ccc2ccccc12`, the 50% inhibitory concentration (IC50) stood at 0.81 µM.

Consider `CN(C)c1cccc2c1nc(-c1ccco1)n2CCNCc1ccccc1`, for which the IC50 was 0.81 µM.

Regarding `COc1c(C=NNc2nc(Nc3ccccc3)nc(Nc3ccccc3)n2)ccc(Br)c1O`, the IC50 came to 0.72 µM.

The compound `Cn1cnc2c(SCc3ccc(OCc4ccccc4)cc3)ncnc21` yielded an IC50 of 0.56 µM.

In turn, `COc1c(C2=CCN(CCCCNC(=O)c3ccc(-c4ccc(C#N)cc4)cc3)CC2)ccc2c1CCCC2` registered a half-maximal inhibitory concentration (IC50) of 0.91 µM.

`Cc1cccc2[nH]c(-c3cccc(-c4ccc(NC(=O)Cc5ccccn5)cc4)c3)nc12` came in with a half-inhibitory concentration (IC50) of 0.79 µM.

In turn, `COc1ccc2nc(-c3cc(-c4ccc(NC(C)=O)cc4)cnc3N)[nH]c2c1` displayed an IC50 of 1.24 µM.

Compound `CCc1cc2c3c(N)nc(N)nc3ccc2n1C(C)(C)C` yielded a half-maximal inhibitory concentration (IC50) of 0.01 µM.

`CN1CCN(c2ccnc3ccc(NC(=O)Nc4cccc5c(Br)cccc45)cc23)CC1`: the half-maximal inhibitory concentration (IC50) is 0.15 µM.

In the case of `O=C(Nc1cc(F)c(F)c(-c2cccnc2)c1)N1CCc2cc(Cl)c(Cl)cc21`, the IC50 was 0.84 µM.

In the case of `O=S(=O)(Nc1ccc2nccc(N3CCNCC3)c2c1)c1ccc2oc3ccccc3c2c1`, the concentration for half-maximal inhibition (IC50) was 0.69 µM.

Regarding `COc1ccc(-n2nc(C(=O)NCc3ccccc3OC)c3ccccc3c2=O)cc1`, the IC50 turned out to be 0.22 µM.

`N#Cc1ccc2c(c1)CCN(CCC1CCC(NC(=O)c3ccc(-c4ccccc4)s3)CC1)CC2` (stereo not drawn) returned an IC50 of 0.68 µM.

For the compound `O=C(/C=C/c1ccc(F)cc1)NC1CCC(CCN2CCc3ccc(-n4cccn4)cc3CC2)CC1` (stereo not drawn), the IC50 was 1.44 µM.

The compound `COc1ccc(Nc2nccc(N3CCC(NC(=O)Nc4cccc(OC)c4)C3)n2)cc1` (stereo not drawn) showed an IC50 of 0.42 µM.

As for `NC(=O)c1cccc(C(=O)Nc2ccc(-c3cccc(-c4nc5ccc(F)cc5[nH]4)c3)cc2)c1`, the concentration for half-maximal inhibition (IC50) was 0.87 µM.

In turn, `CCCCCCN1CCCN(Cc2cccc(C(=O)Nc3ccc(C(C)(C)C)cc3)c2)CC1` showed an IC50 of 0.94 µM.

On to `CC(Cc1ccc(SC(C)(C)C)cc1)NCC(O)c1cccc(Cl)c1` (stereo not drawn), for which the IC50 amounted to 0.32 µM.

In turn, `CN1CCN(c2cc3c(cc2Cl)CCN3C(=O)Cc2ccc(Cl)c(NC(=O)Nc3cccc([N+](=O)[O-])c3)c2)CC1` had a half-maximal inhibitory concentration (IC50) of 0.72 µM.

Compound `CN1CCN(Cc2cccc(-c3ccc4c(Nc5ccc(Oc6cccnc6)cc5)ccnc4c3)c2)CC1` gave a half-inhibitory concentration (IC50) of 0.19 µM.

In the case of `CNc1ccc(CNCc2cccc(-c3ccc(-c4nc5c(C)cccc5[nH]4)cc3)c2)cc1`, the IC50 was found to be 0.66 µM.

In turn, `CCCCCCCN1CC[C@@H](CCCc2ccnc3ccc(OCCCCNC(N)=O)cc23)[C@@H](CC)C1` registered an IC50 of 0.84 µM.

`CCCCCN=C(N)c1ccc(OCCCCCOc2ccc(C(N)=NCCCCC)cc2)cc1` registered a half-inhibitory concentration (IC50) of 0.25 µM.

As for `Clc1cc(Br)ccc1-c1ccc(CNCC2CCNCC2)o1`, the IC50 amounted to 1.51 µM.

Regarding `COc1cc(C(=O)NC2CCN(Cc3ccccc3)CC2)ccc1-c1cc2cc(Cl)c(Cl)cc2[nH]1`, the half-maximal inhibitory concentration (IC50) was 0.23 µM.

Regarding `Fc1cccc(Nc2nc(NCc3ccc(Cl)c(Cl)c3)nc(Nc3cccc(F)c3)n2)c1`, the half-inhibitory concentration (IC50) was found to be 0.75 µM.

As for `NCc1cccc(-c2cccc(CN(C(=O)Nc3ccccc3)C3CCN(Cc4ccccc4)CC3)c2)c1`, the IC50 was determined as 0.83 µM.

In turn, `Cc1noc(C)c1-c1cccc(CNCc2ccc(-c3cccc(-c4nc5ccccc5[nH]4)c3)cc2)c1` gave a half-inhibitory concentration (IC50) of 0.57 µM.

`CN(Cc1ccc(-c2ccc(C(F)(F)F)cc2)cc1)C(=O)Cn1c(CCc2cccc(F)c2F)cc(=O)c2ccc(OCCCN3CCCCC3)cc21` showed a half-maximal inhibitory concentration (IC50) of 0.71 µM.

`CCCCn1c(Sc2ccc(C#N)c([N+](=O)[O-])c2)nnc1-c1cccc(Cl)c1` had an IC50 of 0.76 µM.

`Cc1[nH]c(C)c(-c2ccc(-c3ccc(Cl)cc3)cc2)c(=O)c1Cl` gave an IC50 of 0.21 µM.

Regarding `Cn1nc(C(F)(F)F)c(-c2ccc(Br)cc2)c1NC(=O)Nc1ccc(F)cc1F`, the IC50 is 0.79 µM.
